# Measured values from patent US12325710B2, “Substituted 1,2,3,4,5,6-hexahydroazepino[4,5-b]indoles for treating brain disorders” (priority 2019, dated 2025).
# Entries after “also recorded” stand apart in the source; their conditions may differ.
# Legend:
# mouse 5-HT2A receptors = mouse 5-HT2A receptors (Mus musculus, UniProt P35363); assay: 5-HT2A Gq-mediated calcium flux functional assay (mouse); format: cell-based
# Procedure: (§1) Serotonin and Opioid Receptor Functional Assays. Functional assay screens at 5-HT and opioid receptors were performed in parallel using the same compound dilutions and 384-well format high-throughput assay platforms. Assays assessed activity at all human isoforms of the receptors, except where noted for the mouse 5-HT2A receptor. Receptor constructs in pcDNA vectors were generated from the Presto-Tango GPCR library with minor modifications. All compounds were serially diluted in drug buffer (HBSS, 20 mM HEPES, pH 7.4 supplemented with 0.1% bovine serum albumin and 0.01% ascorbic acid) and dispensed into 384-well assay plates using a FLIPR^TETRA (Molecular Devices). Every plate included a positive control such as 5-HT (for all 5-HT receptors), DADLE (DOR), salvinorin A (KOR), and DAMGO (MOR). For measurements of 5-HT2A, 5-HT2B, and 5-HT2C Gq-mediated calcium flux function, HEK Flp-In 293 T-Rex stable cell lines (Invitrogen) were loaded with Fluo-4 dye for one hour, stimulated with compounds and read for baseline (0-10 seconds) and peak fold-over-basal fluorescence (5 minutes) at 25° C. on the FLIPR^TETRA. For measurement of 5-HT6 and 5-HT7a functional assays, Gs-mediated cAMP accumulation was detected using the split-luciferase GloSensor assay in HEKT cells measuring luminescence on a Microbeta Trilux (Perkin Elmer) with a 15 min drug incubation at 25° C. […]
# C57/BL6J mice = assay: Forced swim test (FST); format: in vivo, mouse; conditions: 24 h after drug administration; TBG 50 mg/kg, ketamine 3 mg/kg i.p.
# Procedure: Forced Swim Test (FST). Male C57/BL6J mice (9-10 weeks old at time of experiment, n=10 per condition) were obtained from the Jackson Lab and housed 4-5 mice/cage in a UCD vivarium following an IACUC approved protocol. After 1 week in the vivarium each mouse was handled for approximately 1 minute by a experimenter for 3 consecutive days leading up to the first FST. All experiments were carried out by the same experimenter who performed handling. During the FST, mice underwent a 6 min swim session in a clear Plexiglas cylinder 40 cm tall, 20 cm in diameter, and filled with 30 cm of 24±1° C. water. Fresh water was used for every mouse. After handling and habituation to the experimenter, drug-naïve mice first underwent a pretest swim to more reliably induce a depressive phenotype in the subsequent FST sessions. Immobility scores for all mice were determined after the pre-test and mice were randomly assigned to treatment groups to generate groups with similar average immobility scores to be used for the following two FST sessions. […] Experiments were video-recorded and manually scored offline. Immobility time—defined as passive floating or remaining motionless with no activity other than that needed to keep the mouse's head above water—was scored for the last 4 min of the 6 min trial.
# larval zebrafish = assay: Heart rate and arrhythmia in immobilized larval zebrafish
# [1] = tested on: opioid receptors (MOR, KOR, DOR); assay: Opioid receptor functional assays (Gi/o-mediated cAMP inhibition); format: cell-based, human
# Procedure: as §1
# 5-HT2C = biological target: T1, 5-HT2C (Homo sapiens, UniProt P28335); assay: 5-HT2C Gq-mediated calcium flux functional assay; format: cell-based
# T1 sequence (P28335 33-458): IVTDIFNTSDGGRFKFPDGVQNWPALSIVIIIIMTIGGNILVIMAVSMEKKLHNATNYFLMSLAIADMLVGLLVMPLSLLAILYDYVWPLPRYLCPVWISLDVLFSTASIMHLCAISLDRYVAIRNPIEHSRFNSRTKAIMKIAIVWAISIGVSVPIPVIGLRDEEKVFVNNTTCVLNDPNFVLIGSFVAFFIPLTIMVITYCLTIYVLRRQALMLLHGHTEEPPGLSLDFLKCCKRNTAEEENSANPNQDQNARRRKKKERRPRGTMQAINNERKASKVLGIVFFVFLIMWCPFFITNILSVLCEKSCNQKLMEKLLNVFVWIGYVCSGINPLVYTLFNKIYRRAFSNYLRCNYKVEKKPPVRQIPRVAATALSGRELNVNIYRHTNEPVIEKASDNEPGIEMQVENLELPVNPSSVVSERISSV
# Procedure: as §1
# zebrafish = assay: Zebrafish developmental toxicity assay; format: in vivo
# [2] = tested on: larval zebrafish expressing GCaMP5; assay: Seizurogenic potential in larval zebrafish expressing GCaMP5; format: in vivo; conditions: 200 μM; PTZ positive control
# Procedure: Transgenic larval zebrafish expressing GCaMP5G were immobilized in agarose, treated with compounds, and imaged over time. The known seizure-inducing compound PTZ was used as a positive control. All compounds were treated at 200 μM (n=2 per condition).
# human 5-HT2A receptors = human 5-HT2A receptors (Homo sapiens, UniProt P28223); assay: 5-HT2A Gq-mediated calcium flux functional assay (human); format: cell-based
# Chain of human 5-HT2A receptors (P28223 whole entry): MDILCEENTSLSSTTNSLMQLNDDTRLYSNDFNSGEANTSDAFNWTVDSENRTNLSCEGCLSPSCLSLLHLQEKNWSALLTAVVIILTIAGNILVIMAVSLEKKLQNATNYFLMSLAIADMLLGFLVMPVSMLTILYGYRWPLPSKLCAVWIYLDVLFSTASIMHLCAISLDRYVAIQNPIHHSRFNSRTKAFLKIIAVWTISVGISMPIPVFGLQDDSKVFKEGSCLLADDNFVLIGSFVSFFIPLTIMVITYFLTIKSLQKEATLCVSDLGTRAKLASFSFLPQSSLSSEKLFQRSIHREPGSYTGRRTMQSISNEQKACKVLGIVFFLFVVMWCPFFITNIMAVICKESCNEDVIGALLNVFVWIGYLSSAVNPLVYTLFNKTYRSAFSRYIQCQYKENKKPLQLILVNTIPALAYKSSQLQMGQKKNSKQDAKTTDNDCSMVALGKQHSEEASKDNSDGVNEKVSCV
# Procedure: as §1
# 5-HT1A = biological target: T2, 5-HT1A (Homo sapiens, UniProt P08908); assay: 5-HT1A functional assay (Gi/o-mediated cAMP inhibition); format: cell-based
# T2 construct: expressed in transfected cells; host or cells: HEKT cells (GloSensor cAMP assay)
# T2 sequence (P08908 1-422): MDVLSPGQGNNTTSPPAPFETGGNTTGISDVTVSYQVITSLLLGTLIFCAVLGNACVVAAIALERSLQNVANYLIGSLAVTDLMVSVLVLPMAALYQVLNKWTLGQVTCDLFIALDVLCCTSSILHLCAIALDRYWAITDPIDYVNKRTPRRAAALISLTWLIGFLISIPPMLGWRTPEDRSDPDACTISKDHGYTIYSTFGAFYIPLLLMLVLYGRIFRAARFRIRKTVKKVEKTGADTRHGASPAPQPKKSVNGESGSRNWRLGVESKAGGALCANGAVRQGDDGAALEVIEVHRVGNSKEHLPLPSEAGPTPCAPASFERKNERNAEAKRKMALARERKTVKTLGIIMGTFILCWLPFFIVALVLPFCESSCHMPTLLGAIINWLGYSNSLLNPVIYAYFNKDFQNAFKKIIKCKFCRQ
# Procedure: as §1
# Chain of mouse 5-HT2A receptors (P35363 whole entry, canonical isoform): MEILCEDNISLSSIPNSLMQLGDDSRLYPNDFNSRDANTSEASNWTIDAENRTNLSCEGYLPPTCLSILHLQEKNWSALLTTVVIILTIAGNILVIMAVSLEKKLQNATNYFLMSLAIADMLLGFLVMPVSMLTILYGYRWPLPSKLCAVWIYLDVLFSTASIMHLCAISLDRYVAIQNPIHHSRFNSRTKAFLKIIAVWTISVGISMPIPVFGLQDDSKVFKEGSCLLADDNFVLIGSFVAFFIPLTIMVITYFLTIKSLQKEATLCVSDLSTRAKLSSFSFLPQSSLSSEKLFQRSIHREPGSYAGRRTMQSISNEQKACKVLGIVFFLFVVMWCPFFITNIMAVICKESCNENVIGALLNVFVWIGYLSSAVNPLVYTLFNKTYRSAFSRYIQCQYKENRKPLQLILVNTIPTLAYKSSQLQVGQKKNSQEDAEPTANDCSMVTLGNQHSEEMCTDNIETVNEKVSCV
smiles,measurement,setting,value
COc1ccc2c3c([nH]c2c1)CCN(C)CC3 [TBG],agonist activity at mouse 5-HT2A receptors,mouse 5-HT2A receptors,potent agonist activity
same,immobility in FST,C57/BL6J mice,antidepressant-like effects; also recorded: significantly reduced immobility
same,heart rate (bradycardia),larval zebrafish,Neither IBG nor TBG induced these undesirable phenotypes; also recorded: do not induce bradycardia
same,likelihood of arrhythmias (ratio of atrium to ventricle BPM),larval zebrafish,Neither IBG nor TBG induced these undesirable phenotypes
same,opioid agonist activity,[1],weak or no opioid agonist activity
same,5-HT2C agonist activity compared to 5-MeO-DMT,5-HT2C,weaker 5-HT1A and 5-HT2C agonist activity
same,proportion of viable to non-viable fish,"zebrafish; 66 μM, 5 dpf",statistically indistinguishable from vehicle control; also recorded: does not cause developmental toxicity
same,"malformations, mortality, non-viable fish","zebrafish; 100 μM, 2 and 5 dpf",significantly fewer non-viable fish than ibogaine or noribogaine treatments
same,seizure induction (neural activity),[2],Neither ibogaine nor TBG produced excessive neural activity; also recorded: does not induce seizures
same,agonist activity at human 5-HT2A receptors,human 5-HT2A receptors,potent agonist activity
same,5-HT1A agonist activity compared to 5-MeO-DMT,5-HT1A,weaker 5-HT1A and 5-HT2C agonist activity
